Laboratory results: US20180369258A1, “ANTI-BACTERIAL COMPOUNDS BASED ON AMINO-GOLD PHOSPHINE COMPLEXES” (priority 2015, published 2018)

Experiments:
Format in all cases: cell-based
[1] = test system: human hepatocyte cell line (HepG2); test: HepG2 cell inhibition assay (CCK-8 viability); details: 50% growth inhibition vs untreated control, 24 hours
Method: Cell counting kit-8 (Sigma, CCK-8) assays were performed to assess the effect of compounds on cell viability. The assay is based on the reduction of a water-soluble tetrazolium salt (WST-8) by cellular dehydrogenases to a formazan dye which can be detected spectroscopically. 96-well plates were seeded with the human hepatocyte cell line (HepG2) at approximately 8×10^3 cells per well in Eagle's Minimum Essential Medium (EMEM) with Earle's salts and sodium bicarbonate supplemented with 10% heat-inactivated foetal bovine serum 2 mM glutamine and 1% non-essential amino acids (NEAA). The following day serial dilutions of compounds (dissolved and diluted in DMSO) were added to the cells in duplicates. Control wells included an ‘untreated’ control where cells were grown in the presence of 1% DMSO and a ‘medium only’ control (plus 1% DMSO). After 24 hours CCK-8 reagent (10 μl) was added to each well and cell viability was assessed by measuring the absorbance at a wavelength of 450 nm after 2-3 h hours. Only living cells can reduce the tetrazolium salts into coloured formazan products. Results were expressed as 50% growth inhibition (TD50) values compared to ‘untreated’ control.

A. baumannii NC13421 = test: Disk diffusion assay, multidrug resistant clinical isolate
Method: (§1) The activity of test compounds against multi-drug resistant bacterial strains was assessed by the disk diffusion assay; a standardised method to assess for the antimicrobial susceptibility of microorganisms (adapted from EUCAST, Version 5, January 2015). In brief, bacterial cultures were suspended in phosphate buffer and spread evenly onto blood agar plates. Cellulose disks (5 mm) were placed onto the agar plates and 3 μl test compound (60 μg/disk) were pipetted to the centre. A panel of standard antibiotics disks (Sigma) were used to control for the antimicrobial resistance profile of the individual strains (quantity as indicated in the table). The plates were then placed into a thermo-incubator and were cultured at 37° C. over-night. Activity was recorded by measuring the zone of clearance (mm) around the disks.

K. pneumoniae 13368 = test: as above
Method: as §1

E. faecalis DSM13591 = test: as above
Method: as §1

E. coli 13400 = test: as above
Method: as §1

[2] = test system: S. aureus (Oxford strain); test: Growth assay for S. aureus (MIC); details: background statement for auranofin
Method: Stock solution of the test compounds (20 mg/ml) in dimethyl sulfoxide (DMSO) were serially diluted in DMSO and each diluted compound added in duplicate to a 96-well plate to a final DMSO concentration of 2% (v/v). An overnight culture of S. aureus (Oxford strain) grown in tryptic soy broth (TSB) was diluted to approximately 5×10^7 cfu/ml and 150 μl of this sample was added to each well of the 96-well plates. Control wells included an ‘untreated’ control with bacteria in TSB in the presence of 2% DMSO and a negative sample (containing 150 μl TSB growth media in the presence of 2% DMSO). Plates were incubated in a shaking incubator at 37° C. for 22-24 hours and bacterial growth assessed by absorbance at a wavelength of 595 nm. The minimum inhibitory concentration (MIC) was defined as the lowest concentration of compound that inhibited growth compared to the no-treatment control.

V. cholerae = test: In vitro growth inhibition of V. cholerae (MIC); details: background statement for auranofin

COc1ccc(N2CC[N]([Au]=[P](C)(C)C)C2=O)cc1 [Compound 26]
HepG2 cell TD50 [1]: 6 µg/mL

C[N]([Au]=[P](C)(C)C)S(C)(=O)=O [Compound 21]
HepG2 cell TD50 [1]: 4 µg/mL

C[P](C)(C)=[Au][n]1cnc2ccccc21 [Compound 44]
HepG2 cell TD50 [1]: 5 µg/mL

C[C@@H](O)[C@H]1C(=O)N2C(C(=O)O)=C(SCCN=CN)C[C@H]12 [Imipenem]
Size of Clearance of Zone (A. baumannii NC13421; antibiotic disk 10 μg): R
Size of Clearance of Zone (K. pneumoniae 13368; antibiotic disk 10 μg): 18 mm
Size of Clearance of Zone (E. faecalis DSM13591; antibiotic disk 10 μg): 26 mm
Size of Clearance of Zone (E. coli 13400; antibiotic disk 10 μg): 29 mm

C[P](C)(C)=[Au][N]1C(=O)CCC1=O [Compound 7]
HepG2 cell TD50 [1]: 11 µg/mL

C[P](C)(C)=[Au][n]1cc(C(F)(F)F)cn1 [Compound 41]
HepG2 cell TD50 [1]: 16 µg/mL

C[C@@H](O)[C@H]1C(=O)N2C(C(=O)O)=C(S[C@@H]3CN[C@H](C(=O)Nc4cccc(C(=O)O)c4)C3)[C@H](C)[C@H]12 [Ertapenem]
Size of Clearance of Zone (A. baumannii NC13421; antibiotic disk 10 μg): R
Size of Clearance of Zone (K. pneumoniae 13368; antibiotic disk 10 μg): R
Size of Clearance of Zone (E. faecalis DSM13591; antibiotic disk 10 μg): 14 mm
Size of Clearance of Zone (E. coli 13400; antibiotic disk 10 μg): 30 mm

CC1C(=O)[N]([Au]=[P](C)(C)C)C(=O)N1c1ccccc1 (stereo not shown) [Compound 16]
HepG2 cell TD50 [1]: 10 µg/mL

C[P](C)(C)=[Au][n]1cccn1 [Compound 36]
HepG2 cell TD50 [1]: 7.3 µg/mL

CN1C(=O)[N]([Au]=[P](C)(C)C)C(=O)C1(C)C [Compound 17]
HepG2 cell TD50 [1]: 8 µg/mL

C[P](C)(C)=[Au][N]1C(=O)c2ccccc2C1=O [Compound 10]
HepG2 cell TD50 [1]: 15 µg/mL

COc1ccc2c(cn[n]2[Au]=[P](C)(C)C)c1 [Compound 50]
HepG2 cell TD50 [1]: 3 µg/mL

CO/N=C(\C(=O)N[C@@H]1C(=O)N2C(C(=O)O)=C(COC(C)=O)CS[C@H]12)c1csc(N)n1 [Cefotaxime]
Size of Clearance of Zone (A. baumannii NC13421; antibiotic disk 30 μg): R
Size of Clearance of Zone (K. pneumoniae 13368; antibiotic disk 30 μg): R
Size of Clearance of Zone (E. faecalis DSM13591; antibiotic disk 30 μg): R
Size of Clearance of Zone (E. coli 13400; antibiotic disk 30 μg): 18 mm

CN1CC[N]([Au]=[P](C)(C)C)C1=O [Compound 5]
HepG2 cell TD50 [1]: 6 µg/mL

Cc1nnc(C)[n]1[Au]=[P](C)(C)C [Compound 46]
HepG2 cell TD50 [1]: 5 µg/mL

C[P](C)(C)=[Au][N]1CCCOC1=O [Compound 18]
HepG2 cell TD50 [1]: 5 µg/mL

Cc1nc2ccccc2[n]1[Au]=[P](C)(C)C [Compound 45]
HepG2 cell TD50 [1]: 5 µg/mL

Cc1ncc[n]1[Au]=[P](C)(C)C [Compound 47]
HepG2 cell TD50 [1]: 3.9 µg/mL

CC[P](CC)(CC)=[Au][N]1C(=O)c2ccccc2C1=O [Compound 11]
HepG2 cell TD50 [1]: 4 µg/mL

CC[P](CC)(CC)=[Au][N]1CCOCC1=O [Compound 3]
HepG2 cell TD50 [1]: 6 µg/mL

COc1ccc2c(c1)nc[n]2[Au]=[P](C)(C)C [Compound 39]
HepG2 cell TD50 [1]: 9 µg/mL

C[P](C)(C)=[Au][n]1cnc2cccnc21 [Compound 51]
HepG2 cell TD50 [1]: 3 µg/mL

C[P](C)(C)=[Au][n]1ccn(-c2ccccc2)c1=O [Compound 25]
HepG2 cell TD50 [1]: 5 µg/mL

CC[N]([Au]=[P](C)(C)C)C(C)=O [Compound 4]
HepG2 cell TD50 [1]: 7 µg/mL

C[P](C)(C)=[Au][N]1CCCCS1(=O)=O [Compound 29]
HepG2 cell TD50 [1]: 3 µg/mL

C[P](C)(C)=[Au][N]1CCN(c2ccccc2)C1=O [Compound 6]
HepG2 cell TD50 [1]: 9 µg/mL

C[P](C)(C)=[Au][n]1ccnc1 [Compound 43]
HepG2 cell TD50 [1]: 4 µg/mL

C[P](C)(C)=[Au][N]1CCCCC1=O [Compound 2]
HepG2 cell TD50 [1]: 3 µg/mL

C[P](C)(C)=[Au][N]1CCCS1(=O)=O [Compound 28]
HepG2 cell TD50 [1]: 9 µg/mL

C[P](C)(C)=[Au][N]1CCN(c2ccc(F)cc2)C1=O [Compound 27]
HepG2 cell TD50 [1]: 4 µg/mL

C[P](C)(C)=[Au][N]1CCOCC1=O [Compound 1]
HepG2 cell TD50 [1]: 4 µg/mL

C[P](C)(C)=[Au][N]1C(=O)CCCC1=O [Compound 14]
HepG2 cell TD50 [1]: 7 µg/mL

C[P](C)(C)=[Au][N]1CCCC1=O [Compound 31]
HepG2 cell TD50 [1]: 3 µg/mL

CN1C(=O)[N]([Au]=[P](C)(C)C)C(=O)C12CCCC2 [Compound 19]
HepG2 cell TD50 [1]: 13 µg/mL

CO/N=C(\C(=O)N[C@@H]1C(=O)N2C(C(=O)O)=C(CSc3nc(=O)c(=O)[nH]n3C)CS[C@H]12)c1csc(N)n1 [Ceftriaxone]
Size of Clearance of Zone (A. baumannii NC13421; antibiotic disk 30 μg): R
Size of Clearance of Zone (K. pneumoniae 13368; antibiotic disk 30 μg): R
Size of Clearance of Zone (E. faecalis DSM13591; antibiotic disk 30 μg): R
Size of Clearance of Zone (E. coli 13400; antibiotic disk 30 μg): R

C[P](C)(C)=[Au][N]1Cc2ccccc2C1=O [Compound 20]
HepG2 cell TD50 [1]: 2 µg/mL

Colistin
Size of Clearance of Zone (A. baumannii NC13421; antibiotic disk 10 μg): 11 mm
Size of Clearance of Zone (K. pneumoniae 13368; antibiotic disk 10 μg): 9.5 mm
Size of Clearance of Zone (E. coli 13400; antibiotic disk 10 μg): 12 mm

C[P](C)(C)=[Au][n]1ncc2cccnc21 [Compound 42]
HepG2 cell TD50 [1]: 5 µg/mL

C[P](C)(C)=[Au][n]1cnnn1 [Compound 40]
HepG2 cell TD50 [1]: 6 µg/mL

C[P](C)(C)=[Au][n]1ccnn1 [Compound 37]
HepG2 cell TD50 [1]: 11.9 µg/mL

C[C@@H](O)[C@H]1C(=O)N2C(C(=O)O)=C(S[C@@H]3CN[C@H](C(=O)N(C)C)C3)[C@H](C)[C@H]12 [Meropenem]
Size of Clearance of Zone (A. baumannii NC13421; antibiotic disk 10 μg): R
Size of Clearance of Zone (K. pneumoniae 13368; antibiotic disk 10 μg): 22 mm
Size of Clearance of Zone (E. faecalis DSM13591; antibiotic disk 10 μg): 17 mm

C[P](C)(C)=[Au][n]1cnnc1 [Compound 38]
HepG2 cell TD50 [1]: 7 µg/mL

C[P](C)(C)=[Au][n]1ccccc1=O [Compound 13]
HepG2 cell TD50 [1]: 3 µg/mL

C[P](C)(C)=[Au][N]1C(=O)COCC1=O [Compound 8]
HepG2 cell TD50 [1]: 9 µg/mL

C[P](C)(C)=[Au][N]1CCOC1=O [Compound 9]
HepG2 cell TD50 [1]: 7 µg/mL

C[P](C)(C)=[Au][N]1C(=O)COc2ccccc21 [Compound 12]
HepG2 cell TD50 [1]: 4 µg/mL

CN[C@H](CC(C)C)C(=O)N[C@H]1C(=O)N[C@@H](CC(N)=O)C(=O)N[C@H]2C(=O)N[C@H]3C(=O)N[C@H](C(=O)N[C@H](C(=O)O)c4cc(O)cc(O)c4-c4cc3ccc4O)[C@H](O)c3ccc(c(Cl)c3)Oc3cc2cc(c3O[C@@H]2O[C@H](CO)[C@@H](O)[C@H](O)[C@H]2O[C@H]2C[C@](C)(N)[C@H](O)[C@H](C)O2)Oc2ccc(cc2Cl)[C@H]1O [Vancomycin]
Size of Clearance of Zone (E. faecalis DSM13591; antibiotic disk 30 μg): R

C[N]([Au]=[P](C)(C)C)S(=O)(=O)c1ccccc1 [Compound 24]
HepG2 cell TD50 [1]: 5 µg/mL

C[P](C)(C)=[Au][N]1C(=O)C2CCCN2C1=O (stereo not shown) [Compound 15]
HepG2 cell TD50 [1]: 3 µg/mL

CC(=O)OC[C@H]1O[C@@H]([S-])[C@H](OC(C)=O)[C@@H](OC(C)=O)[C@@H]1OC(C)=O.CCP(CC)CC.[Au+] [Auranofin]
MIC, in vitro growth of S. aureus (Oxford strain) [2]: 0.6 to 0.9 µg/mL
MIC, in vitro growth of V. cholerae (V. cholerae): 2.5 µg/mL

CC1(C)OC(=O)[N]([Au]=[P](C)(C)C)C1=O [Compound 30]
HepG2 cell TD50 [1]: 3 µg/mL

CC(=O)NC[C@H]1CN(c2ccc(N3CCOCC3)c(F)c2)C(=O)O1 [Linezolid]
Size of Clearance of Zone (E. faecalis DSM13591; antibiotic disk 10 μg): 22 mm

C[P](C)(C)=[Au][n]1ccnc1C(F)(F)F [Compound 48]
HepG2 cell TD50 [1]: 4 µg/mL
